Results reported in patent US7731985B2, “4-aminopyrimidines and their use for the antimicrobial treatment of surfaces” (Ciba Specialty Chemicals Corporation, priority 2002, dated 2010).

What was measured:
Test in all cases: MIC in microtitre plates (Example 10)
Type in all cases: cell-based
Parameters in all cases: unit not given here
Conditions in all cases: microtitre plate, 48 hours at 37° C., ≦20% growth
[1] = tested on: Candida albicans ATCC 10231 (=CA)
Protocol: (§1) Determination of the Minimum Inhibitory Concentration (MIC Value) in Microtitre Plates Casein/soymeal peptone broth for preparation of pre-cultures of test bacteria and yeast Bacteria: • Pseudomonas aeruginosa CIP A-22 (=PA) • Escherichia coli NCTC 8196 (=EC) • Staphylococcus aureus ATCC 9144 (=SA) • Candida albicans ATCC 10231 (=CA) The test substances are pre-dissolved in dimethyl sulfoxide (DMSO) and tested in a dilution series of 1:2. Bacteria and yeast are cultured overnight in CASO broth. All the test organism suspensions are adjusted to an organism count of 1-5×10^6 CFU/ml using […] sodium chloride solution. The test substances are pre-pipetted into microtitre plates in amounts of 8 μl per well. The pre-adjusted organism suspensions are diluted 1:100 in CASO broth and are added in amounts of 192 μl per well to the test substances. The test batches are incubated for 48 hours at 37° C. The incubation, the growth is determined on the basis of the turbidity of the test batches (optical density) at 620 nm in a microplate reader. The minimum inhibitory concentration (MIC value) is the concentration of substance at which (compared to the growth of the control) an appreciable inhibition of growth (≦20% growth) of the test organisms is observed. Three microtitre plates are used for each test organism and substance concentration. All the substances are tested in duplicate.

[2] = tested on: Escherichia coli NCTC 8196 (=EC)
Protocol: as §1

[3] = tested on: Pseudomonas aeruginosa CIP A-22 (=PA)
Protocol: as §1

[4] = tested on: Staphylococcus aureus ATCC 9144 (=SA)
Protocol: as §1

CCCCCCNc1cc(C)nc(-c2ccccc2)n1 [compound 111]
MIC CA [1]: 60
MIC EC [2]: 120
MIC PA [3]: >120
MIC SA [4]: 7.5

CCCCN(CCCC)c1cc(C)nc(-c2cccnc2)n1 [compound 54]
MIC CA [1]: 120
MIC EC [2]: >120
MIC PA [3]: >120
MIC SA [4]: 15

CCCCCCCCNc1cc(C)nc(-c2ccc(C(C)(C)C)cc2)n1 [compound 58]
MIC CA [1]: 60
MIC EC [2]: 120
MIC PA [3]: >120
MIC SA [4]: 15

CCCCCCNc1cc(C)nc(C)n1 [compound 113]
MIC CA [1]: 30
MIC EC [2]: 120
MIC PA [3]: >120
MIC SA [4]: 7.5

CCCCCCCCCCCCNc1cc(C)nc(-c2csc(C)n2)n1 [compound 94]
MIC CA [1]: 7.5
MIC EC [2]: 15
MIC PA [3]: >120
MIC SA [4]: <3.75

CCCCCCCCNc1cc(C)nc(-c2cccc(OC)c2)n1 [compound 62]
MIC CA [1]: 120
MIC EC [2]: 120
MIC PA [3]: >120
MIC SA [4]: 60

CCCCCCCCCCCCCCNc1cc(C)nc(C(C)C)n1 [compound 81]
MIC CA [1]: <3.75
MIC EC [2]: <3.75
MIC PA [3]: >120
MIC SA [4]: <3.75

NCCCCCCCCNc1nc(-c2ccccc2)nc(-c2cccc3ccccc23)c1-c1ccccc1 [compound 4]
MIC CA [1]: 15
MIC EC [2]: 30
MIC PA [3]: >120
MIC SA [4]: 7.5

CNCCN(C)c1nc(-c2ccccc2)nc(-c2cccc(C(F)(F)F)c2)c1-c1ccccc1 [compound 17]
MIC CA [1]: 15
MIC EC [2]: 30
MIC PA [3]: >120
MIC SA [4]: 15

CCCCC(CC)CNc1cc(C)nc(-c2ccc(C)cc2)n1 (centres unmarked) [compound 136]
MIC CA [1]: 60
MIC EC [2]: >120
MIC PA [3]: >120
MIC SA [4]: 7.5

CCCCCCCCCCCCCCNc1cc(C)nc(-c2ccccc2)n1 [compound 76]
MIC CA [1]: 30
MIC EC [2]: 60
MIC PA [3]: >120
MIC SA [4]: 15

CCCCCCCCCCCCNc1cc(C)nc(C2CC2)n1 [compound 92]
MIC CA [1]: 7.5
MIC EC [2]: 15
MIC PA [3]: >120
MIC SA [4]: <3.75

CCCCN(C)c1cc(C)nc(C)n1 [compound 126]
MIC CA [1]: 120
MIC EC [2]: >120
MIC PA [3]: >120
MIC SA [4]: 120

CCCCCCCCCCNc1cc(C)nc(-c2ccc(C)c(F)c2)n1 [compound 107]
MIC CA [1]: 15
MIC EC [2]: 15
MIC PA [3]: >120
MIC SA [4]: 7.5

CCCCCCCCNc1cc(C)nc(-c2cccc(C)c2)n1 [compound 60]
MIC CA [1]: 120
MIC EC [2]: >120
MIC PA [3]: >120
MIC SA [4]: 120

CCCCCCCCCCNc1cc(C)nc(-c2csc(C)n2)n1 [compound 106]
MIC CA [1]: 15
MIC EC [2]: 15
MIC PA [3]: >120
MIC SA [4]: <3.75

CCCCCCCCCCCCNc1cc(C)nc(-c2ccccc2)n1 [compound 87]
MIC CA [1]: 7.5
MIC EC [2]: 15
MIC PA [3]: <120
MIC SA [4]: 15

Cc1cc(NC(C)CC(C)C)nc(-c2ccncc2)n1 (centres unmarked) [compound 142]
MIC CA [1]: 120
MIC EC [2]: >120
MIC PA [3]: >120
MIC SA [4]: 30

CCCCN(CCCC)c1cc(C)nc(-c2csc(C)n2)n1 [compound 122]
MIC CA [1]: 120
MIC EC [2]: >120
MIC PA [3]: >120
MIC SA [4]: 30

CCCCN(C)c1cc(C)nc(-c2ccc(C)c(F)c2)n1 [compound 130]
MIC CA [1]: >120
MIC EC [2]: >120
MIC PA [3]: >120
MIC SA [4]: 120

COc1cccc(-c2nc(-c3ccccc3)nc(NCCCN3CCN(CCCN)CC3)c2-c2ccccc2)c1 [compound 25]
MIC CA [1]: 120
MIC EC [2]: 60
MIC PA [3]: >120
MIC SA [4]: >120

CCCCN(CCCC)c1cc(C)nc(-c2ccncc2)n1 [compound 121]
MIC CA [1]: >120
MIC EC [2]: >120
MIC PA [3]: >120
MIC SA [4]: 30

Cc1cc(NCCc2ccccc2)nc(-c2cccnc2)n1 [compound 48]
MIC CA [1]: 60
MIC EC [2]: >120
MIC PA [3]: >120
MIC SA [4]: 30

Cc1ccc(-c2nc(-c3ccccc3)nc(NCCCCCCN)c2-c2ccccc2)cc1 [compound 11]
MIC CA [1]: 7.5
MIC EC [2]: 15
MIC PA [3]: >120
MIC SA [4]: 7.5

Cc1cc(N2CCCCCC2)nc(-c2cccnc2)n1 [compound 56]
MIC CA [1]: 120
MIC EC [2]: >120
MIC PA [3]: >120
MIC SA [4]: 60

CCCCCCNc1cc(C)nc(-c2ccc(C(C)(C)C)cc2)n1 [compound 109]
MIC CA [1]: 30
MIC EC [2]: 60
MIC PA [3]: >120
MIC SA [4]: 15

Cc1cc(N2CCOCC2)nc(-c2cccnc2)n1 [compound 50]
MIC CA [1]: >120
MIC EC [2]: >120
MIC PA [3]: >120
MIC SA [4]: 120

CCCCCCCCCCCCNc1cc(C)nc(-c2cccc(N)c2)n1 [compound 90]
MIC CA [1]: <3.75
MIC EC [2]: 15
MIC PA [3]: >120
MIC SA [4]: 7.5

CCCCN(C)c1cc(C)nc(C(C)C)n1 [compound 128]
MIC CA [1]: 120
MIC EC [2]: >120
MIC PA [3]: >120
MIC SA [4]: 120

NCCN1CCN(c2nc(-c3ccccc3)nc(-c3cccc(C(F)(F)F)c3)c2-c2ccccc2)CC1 [compound 19]
MIC CA [1]: 8
MIC EC [2]: 15
MIC PA [3]: >120
MIC SA [4]: 7.5

CCCCCCNc1cc(C)nc(-c2cccs2)n1 [compound 110]
MIC CA [1]: 120
MIC EC [2]: >120
MIC PA [3]: >120
MIC SA [4]: 60

FC(F)(F)c1cccc(-c2cc(N3CCC(CCCC4CCNCC4)CC3)ncn2)c1 [compound 30]
MIC CA [1]: 15
MIC EC [2]: 30
MIC PA [3]: >120
MIC SA [4]: 60

CCCCC(CC)CNc1cc(C)nc(C)n1 (centres unmarked) [compound 135]
MIC CA [1]: 30
MIC EC [2]: 120
MIC PA [3]: >120
MIC SA [4]: 60

Cc1ccc(-c2nc(-c3ccccc3)nc(NCCCN3CCN(CCCN)CC3)c2-c2ccccc2)cc1 [compound 14]
MIC CA [1]: 15
MIC EC [2]: 3.75
MIC PA [3]: 30
MIC SA [4]: 15

CCCCCCCCCCCCCCNc1cc(C)nc(-c2ccc(C)c(F)c2)n1 [compound 83]
MIC CA [1]: <3.75
MIC EC [2]: 7.5
MIC PA [3]: >120
MIC SA [4]: <3.75

CCCCCCCCNc1cc(C)nc(-c2cccc(F)c2)n1 [compound 61]
MIC CA [1]: 120
MIC EC [2]: 120
MIC PA [3]: >120
MIC SA [4]: 30

CCCCCCCCCCNc1cc(C)nc(-c2cccc(N)c2)n1 [compound 102]
MIC CA [1]: 15
MIC EC [2]: 30
MIC PA [3]: >120
MIC SA [4]: 7.5

Cc1ccc(-c2nc(-c3ccccc3)nc(N3CCC(CCCC4CCNCC4)CC3)c2-c2ccccc2)cc1 [compound 15]
MIC CA [1]: >120
MIC EC [2]: >120
MIC PA [3]: >120
MIC SA [4]: 15
